Experimental data from patent US20250282770A1, “BIOLUMINESCENT PROBES TO TRACK STEM CELLS IN VIVO” (THE BOARD OF TRUSTEES OF THE UNIVERSITY OF ILLINOIS, priority 2024, published 2025).

Tests used:
[1] = molecular target: T1, ALDH2 (Homo sapiens, UniProt P05091); assay: AlDeLuc isoform selectivity assay; type: biochemical; conditions: 2 μM, pre-activated with HCl, 60 min room temperature
T1 construct: inferred from Ni-NTA purification; made in house; host or cells: E. coli BL21(DE3)
Description: (§1) Expression and Purification of ALDH Expression constructs for recombinant human ALDH1A1, ALDH1A2, ALDH1A3, and ALDH2, ALDH3A1, ALDH4A1, and ALDH5A1 were generously provided by Prof. Daria Mochly-Rosen (Stanford, Chemical and Systems Biology). E. coli BL21(DE3) cells with transformed with each of the above constructs. Colonies were selected from an agar plate containing […] ampicillin and grown overnight (37° C., 220 rpm) in LB media containing […] ampicillin. The overnight culture (10 mL) was inoculated into 1000 mL LB supplemented with […] ampicillin. When the O.D. reached ˜0.5, IPTG was added to a final concentration of 1 mM and incubated overnight (30° C., 200 rpm, 18 h). The cells were harvested via centrifugation (4° C., 4,000 rpm, 90 min) and the cell pellets were stored at −80° C. until purification.
(§2) ALDH Isoform Activity Determination. The activity of each isoform of ALDH was confirmed by monitoring the production of NADH at 340 nm when incubated with the most used substrate for that enzyme (i.e., benzaldehyde for ALDH3A1 and propionaldehyde for all other isoforms). Each isoform was diluted with 50 mM triethanolamine (TEA, pH 7.4) to a final concentration of 0.5 μM and placed in a 1 mL quartz cuvette. Prior to measurement, NAD^+ was added to a final concentration of 2.5 mM and the preferred substrate was added to a final concentration of 1 mM. Absorbance spectra was taken from 300 to 500 nm every 30 seconds for 15 minutes. Activity for each enzyme was calculated from the slope of absorbance increase at 340 nm over time.
(§3) AlDeLuc Isoform Selectivity Assay. Activation of AlDeLuc was assessed using the necessary amount of enzyme that gave the activity of 0.5 nmol of substrate turned over/minute. All enzymatic reactions were performed in 50 mM triethanolamine (TEA) buffer (pH 7.4) with 2.5 mM NAD^+. To prepare the probe solution, AlDeLuc was dissolved in DMSO and incubated with 1 M HCl. After an hour, this solution was neutralized with 1 M NaOH, and diluted with PBS. To a clear 24-well plate, TEA buffer, NAD^+, the ALDH isoform, and then AlDeLuc (2 μM) were added sequentially to a final volume of 1 mL. After an hour incubation at room temperature, ATP-MgSO4 (45 μL, prepared by mixing 17.78 mM ATP-Mg and 35.56 mM MgSO4 in a 1:1 ratio in PBS buffer) and luciferase (5 μL, 1 mg/mL in PBS containing 10% glycerol) were added to initiate bioluminescence production. The wells were immediately imaged using the IVIS imaging system in open mode. ROIs were drawn around each well and the signal intensity was quantified using the Living Image Analysis. The signal enhancement was normalized relative to the ALDH2 isoform.

[2] = molecular target: T2, ALDH1A3 (Homo sapiens, UniProt P47895); assay: AlDeLuc isoform selectivity assay; type: biochemical; conditions: 2 μM, pre-activated with HCl, 60 min room temperature
T2 construct: inferred from Ni-NTA purification; made in house; host or cells: E. coli BL21(DE3)
Description: as §1, §2, §3

[3] = molecular target: T3, ALDH1A1 (Homo sapiens, UniProt P00352); assay: AlDeLuc isoform selectivity assay; type: biochemical; conditions: 2 μM, pre-activated with HCl, 60 min room temperature
T3 construct: inferred from Ni-NTA purification; made in house; host or cells: E. coli BL21(DE3)
T3 sequence (P00352 1-501): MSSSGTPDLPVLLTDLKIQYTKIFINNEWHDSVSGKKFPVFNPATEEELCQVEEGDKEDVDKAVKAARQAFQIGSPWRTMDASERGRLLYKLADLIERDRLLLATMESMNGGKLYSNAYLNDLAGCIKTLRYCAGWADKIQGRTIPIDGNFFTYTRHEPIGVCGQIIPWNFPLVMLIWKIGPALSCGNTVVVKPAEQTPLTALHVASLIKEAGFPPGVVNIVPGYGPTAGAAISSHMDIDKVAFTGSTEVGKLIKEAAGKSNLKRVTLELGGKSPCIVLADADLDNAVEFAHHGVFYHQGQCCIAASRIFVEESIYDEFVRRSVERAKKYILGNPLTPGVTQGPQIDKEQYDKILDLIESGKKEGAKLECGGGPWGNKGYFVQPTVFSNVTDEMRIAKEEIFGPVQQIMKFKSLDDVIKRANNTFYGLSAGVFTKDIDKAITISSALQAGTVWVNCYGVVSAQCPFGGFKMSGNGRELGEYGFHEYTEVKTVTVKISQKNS
Description: as §1, §2, §3

[4] = molecular target: T4, ALDH3A1 (Homo sapiens, UniProt P30838); assay: AlDeLuc isoform selectivity assay; type: biochemical; conditions: 2 μM, pre-activated with HCl, 60 min room temperature
T4 construct: inferred from Ni-NTA purification; made in house; host or cells: E. coli BL21(DE3)
Description: as §1, §2, §3

[5] = molecular target: T5, ALDH5A1 (Homo sapiens, UniProt P51649); assay: AlDeLuc isoform selectivity assay; type: biochemical; conditions: 2 μM, pre-activated with HCl, 60 min room temperature
T5 construct: inferred from Ni-NTA purification; made in house; host or cells: E. coli BL21(DE3)
Description: as §1, §2, §3

[6] = molecular target: T6, ALDH1A2 (Homo sapiens, UniProt O94788); assay: AlDeLuc isoform selectivity assay; type: biochemical; conditions: 2 μM, pre-activated with HCl, 60 min room temperature
T6 construct: inferred from Ni-NTA purification; made in house; host or cells: E. coli BL21(DE3)
Description: as §1, §2, §3

[7] = molecular target: T7, ALDH4A1 (Homo sapiens, UniProt P30038); assay: AlDeLuc isoform selectivity assay; type: biochemical; conditions: 2 μM, pre-activated with HCl, 60 min room temperature
T7 construct: inferred from Ni-NTA purification; made in house; host or cells: E. coli BL21(DE3)
Description: as §1, §2, §3

[8] = system: 4T1-Luc tumors; assay: Bioluminescence imaging of heterotopic breast cancer model with AlDeLuc; type: in vivo, BALB/c mice; conditions: 0.55 mg/kg retro-orbital
Description: Generation of 4T1-Luc Breast Cancer Model. Female or male BALB/c mice (˜6 weeks old) were inoculated with 4T1-Luc cells (50 μL of 1×10^6 cells in 1:1 v/v serum-free RPMI 1640 media and Matrigel) via subcutaneous injections into each flank. Tumor volumes were measured using the caliper method every three days. Body weight was measured daily over the course of the experiment. After two weeks, the tumor was in the 200 to 400 mm^3 range.
Bioluminescence Imaging of a Heterotopic Breast Cancer Model with AlDeLuc. BALB/c mice bearing 4T1-Luc tumors were anesthetized using isoflurane (1-3% for maintenance; up to 5% for induction) in oxygen from a precision vaporizer. After testing to ensure animals are fully under anesthesia, each mouse was administered a control solution of 1:19 v/v DMSO:PBS via retro-orbital injection. After 40 minutes, the mice were imaged on the IVIS imaging system. Luminescence was collected using an open filter set. ROIs were drawn around both the left and right tumors, and the intensity was calculated using the Living Image Analysis software.
The following day the mice were anesthetized, and administered AlDeLuc (0.55 mg/kg, 1:19 v/v DMSO:PBS). […] Luminescence was collected using an open filter set. ROIs were drawn around both the left and right tumors, and the intensity was calculated using the Living Image Analysis software.

T1 sequence (P05091 18-517): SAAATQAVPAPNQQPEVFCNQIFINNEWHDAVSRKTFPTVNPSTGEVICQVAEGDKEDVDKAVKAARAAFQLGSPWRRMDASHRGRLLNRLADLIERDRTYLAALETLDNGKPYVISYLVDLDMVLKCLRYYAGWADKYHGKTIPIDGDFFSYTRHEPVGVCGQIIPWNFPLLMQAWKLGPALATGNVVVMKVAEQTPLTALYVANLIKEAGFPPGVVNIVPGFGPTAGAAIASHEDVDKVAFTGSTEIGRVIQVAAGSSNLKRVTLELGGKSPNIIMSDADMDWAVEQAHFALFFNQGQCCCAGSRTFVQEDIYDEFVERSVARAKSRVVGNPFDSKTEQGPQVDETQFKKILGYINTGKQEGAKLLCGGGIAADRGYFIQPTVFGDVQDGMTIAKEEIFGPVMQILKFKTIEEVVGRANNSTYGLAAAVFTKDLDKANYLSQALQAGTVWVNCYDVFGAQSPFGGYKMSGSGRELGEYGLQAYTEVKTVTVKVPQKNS
T4 sequence (P30838 whole entry, canonical isoform): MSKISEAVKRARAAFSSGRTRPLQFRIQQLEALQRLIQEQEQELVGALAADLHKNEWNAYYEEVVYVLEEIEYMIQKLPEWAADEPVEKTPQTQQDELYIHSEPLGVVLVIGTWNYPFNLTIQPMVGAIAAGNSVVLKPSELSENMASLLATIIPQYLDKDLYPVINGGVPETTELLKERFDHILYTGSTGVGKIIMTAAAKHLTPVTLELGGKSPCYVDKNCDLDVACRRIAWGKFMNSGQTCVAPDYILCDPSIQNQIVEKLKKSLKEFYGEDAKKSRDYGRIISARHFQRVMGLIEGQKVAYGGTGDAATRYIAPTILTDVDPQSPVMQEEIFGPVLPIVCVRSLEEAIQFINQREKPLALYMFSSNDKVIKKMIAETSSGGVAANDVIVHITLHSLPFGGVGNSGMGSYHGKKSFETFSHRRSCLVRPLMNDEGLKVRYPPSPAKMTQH
T7 sequence (P30038 25-563): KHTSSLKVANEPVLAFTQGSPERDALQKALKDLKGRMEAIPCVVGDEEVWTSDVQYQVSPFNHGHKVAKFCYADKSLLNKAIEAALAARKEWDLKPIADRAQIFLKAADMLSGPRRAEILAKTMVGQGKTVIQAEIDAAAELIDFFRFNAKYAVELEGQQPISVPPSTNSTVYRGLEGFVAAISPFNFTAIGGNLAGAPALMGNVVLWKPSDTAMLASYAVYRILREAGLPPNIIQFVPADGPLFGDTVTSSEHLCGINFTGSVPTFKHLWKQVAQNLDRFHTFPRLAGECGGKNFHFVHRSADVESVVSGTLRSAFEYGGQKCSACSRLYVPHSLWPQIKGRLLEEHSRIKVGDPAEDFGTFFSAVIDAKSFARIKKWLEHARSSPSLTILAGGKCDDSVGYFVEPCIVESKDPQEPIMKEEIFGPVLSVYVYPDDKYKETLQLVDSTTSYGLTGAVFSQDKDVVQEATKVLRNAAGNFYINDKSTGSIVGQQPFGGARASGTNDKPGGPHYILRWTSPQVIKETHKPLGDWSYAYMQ
T5 sequence (P51649 48-535): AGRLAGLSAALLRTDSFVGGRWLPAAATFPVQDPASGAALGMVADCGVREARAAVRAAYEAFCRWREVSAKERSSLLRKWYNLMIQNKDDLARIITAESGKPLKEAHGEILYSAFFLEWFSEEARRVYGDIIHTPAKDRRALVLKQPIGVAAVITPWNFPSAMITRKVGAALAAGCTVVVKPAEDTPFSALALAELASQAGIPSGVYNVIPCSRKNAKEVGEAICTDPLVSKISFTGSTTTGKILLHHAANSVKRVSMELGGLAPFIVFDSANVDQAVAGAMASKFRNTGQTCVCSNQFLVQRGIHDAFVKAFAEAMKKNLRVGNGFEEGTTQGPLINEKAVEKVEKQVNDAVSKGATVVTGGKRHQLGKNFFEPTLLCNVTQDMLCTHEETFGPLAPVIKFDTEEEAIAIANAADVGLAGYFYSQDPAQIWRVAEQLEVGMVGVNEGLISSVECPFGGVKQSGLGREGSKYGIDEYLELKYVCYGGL
T6 sequence (O94788 whole entry, canonical isoform): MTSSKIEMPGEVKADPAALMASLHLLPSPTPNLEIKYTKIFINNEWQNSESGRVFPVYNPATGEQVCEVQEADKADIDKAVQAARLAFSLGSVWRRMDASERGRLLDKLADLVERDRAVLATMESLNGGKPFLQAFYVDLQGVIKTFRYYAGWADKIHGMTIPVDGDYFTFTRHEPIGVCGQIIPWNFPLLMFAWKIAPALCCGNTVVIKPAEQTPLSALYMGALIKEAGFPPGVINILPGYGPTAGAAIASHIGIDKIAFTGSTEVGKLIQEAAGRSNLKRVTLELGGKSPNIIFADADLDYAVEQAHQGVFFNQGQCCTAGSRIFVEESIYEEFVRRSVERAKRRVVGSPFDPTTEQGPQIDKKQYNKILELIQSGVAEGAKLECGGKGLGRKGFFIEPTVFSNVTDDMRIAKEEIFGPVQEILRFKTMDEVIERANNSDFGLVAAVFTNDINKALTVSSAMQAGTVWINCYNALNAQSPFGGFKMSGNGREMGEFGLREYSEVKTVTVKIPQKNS
T2 sequence (P47895 whole entry, canonical isoform): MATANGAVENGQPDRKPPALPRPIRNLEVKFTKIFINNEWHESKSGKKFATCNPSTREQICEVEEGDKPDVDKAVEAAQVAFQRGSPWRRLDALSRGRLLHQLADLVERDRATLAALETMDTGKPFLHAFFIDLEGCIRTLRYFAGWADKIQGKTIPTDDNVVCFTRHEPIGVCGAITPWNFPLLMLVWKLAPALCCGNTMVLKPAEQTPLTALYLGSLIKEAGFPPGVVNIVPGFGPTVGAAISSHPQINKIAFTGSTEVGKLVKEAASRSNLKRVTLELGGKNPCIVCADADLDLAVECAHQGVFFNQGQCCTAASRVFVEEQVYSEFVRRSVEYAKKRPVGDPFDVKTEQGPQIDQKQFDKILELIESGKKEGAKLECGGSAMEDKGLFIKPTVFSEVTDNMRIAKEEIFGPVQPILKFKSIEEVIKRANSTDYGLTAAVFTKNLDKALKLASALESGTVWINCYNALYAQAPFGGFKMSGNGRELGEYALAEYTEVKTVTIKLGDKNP

CCN(CC)c1ccc2nc(C3=N[C@@H](C(OC)OC)CS3)sc2c1 [AlDeLuc, (S)-2-(4-(dimethoxymethyl)-4,5-dihydrothiazol-2-yl)-N,N-diethylbenzo[d]thiazol-6-amine]
bioluminescence [1]: only treatment with ALDH1A1 and luciferase generated significant bioluminescence
bioluminescence [2]: only treatment with ALDH1A1 and luciferase generated significant bioluminescence
bioluminescence [3]: significant bioluminescence
bioluminescence [4]: only treatment with ALDH1A1 and luciferase generated significant bioluminescence
bioluminescence [5]: only treatment with ALDH1A1 and luciferase generated significant bioluminescence
bioluminescence [6]: only treatment with ALDH1A1 and luciferase generated significant bioluminescence
bioluminescence [7]: only treatment with ALDH1A1 and luciferase generated significant bioluminescence
time at which tumor bioluminescence signal plateaued ([8]; 4T1-Luc tumors): 40 min
signal at the 24-hour mark ([8]; 24 hours after administration): complete clearance
